From ChEMBL document CHEMBL1201862, “PubChem BioAssay data set” (2004)
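Values below derive from 48-hour exposures of cells grown in 96-well plates, with endpoints linearly interpolated between the two concentrations bracketing the appropriate inhibition level. Abbreviation: GI50, concentration required for 50% inhibition of growth.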 Calls of active or inactive are those of the source. Cut-off read from the data, not from the text of the source: active = GI50 up to about 1.1 µM and inactive = higher.

Assays:
Assay in all cases: inhibition of tumour cell growth, NCI panel, 48 h
DMS-114 = tested on: DMS-114
OVCAR-4 = tested on: OVCAR-4
SF-295 = tested on: SF-295
SF-268 = tested on: SF-268
NCI-H23 = tested on: NCI-H23
A549 = tested on: A549
SW-620 = tested on: SW-620
UO-31 = tested on: UO-31
HCC 2998 = tested on: HCC 2998
IGROV-1 = tested on: IGROV-1
786-0 = tested on: 786-0
SNB-19 = tested on: SNB-19
HL-60 = tested on: HL-60
KM12 = tested on: KM12
OVCAR-5 = tested on: OVCAR-5
HCT-15 = tested on: HCT-15
SK-MEL-28 = tested on: SK-MEL-28
LOX IMVI = tested on: LOX IMVI
CAKI-1 = tested on: CAKI-1
MDA-MB-231 = tested on: MDA-MB-231

Structure (SMILES) | GI50 (DMS-114) | GI50 (OVCAR-4) | GI50 (SF-295) | GI50 (SF-268) | GI50 (NCI-H23) | GI50 (A549) | GI50 (SW-620) | GI50 (UO-31) | GI50 (HCC 2998) | GI50 (IGROV-1) | GI50 (786-0) | GI50 (SNB-19) | GI50 (HL-60) | GI50 (KM12) | GI50 (OVCAR-5) | GI50 (HCT-15) [µM] | GI50 (SK-MEL-28) | GI50 (LOX IMVI) | GI50 (CAKI-1) | GI50 (MDA-MB-231)
O=C1c2ccccc2C(=O)c2c1oc1cc(O)c(Cl)cc21 | 2.23 µM (inactive) | 8.18 µM (inactive) | 2.8 µM (inactive) | 10.8 µM (inactive) | 0.519 µM (active) | 3.01 µM (inactive) | 8.45 µM (inactive) | 11.9 µM (inactive) | 4.62 µM (inactive) | 10.1 µM (inactive) | 10.8 µM (inactive) | 8.81 µM (inactive) | 6.92 µM (inactive) | 6.35 µM (inactive) | 11.2 µM (inactive) | 4.66 | 3.05 µM (inactive) | 1.61 µM (inactive) | 16.7 µM (inactive) | 12.8 µM (inactive)
O=C1/C(=C/c2ccccc2)CN(C(=O)OCc2ccccc2)C/C1=C\c1ccccc1 | 11.2 µM (inactive) | 11.6 µM (inactive) | 12.8 µM (inactive) | 13.8 µM (inactive) | 15.6 µM (inactive) | 28.1 µM (inactive) | 1.81 µM (inactive) | 14.6 µM (inactive) | 7.06 µM (inactive) | 14.1 µM (inactive) | 11.5 µM (inactive) | 26.6 µM (inactive) | 1.79 µM (inactive) | 5.47 µM (inactive) | 17.4 µM (inactive) | 10.9 | 11.5 µM (inactive) | 4.76 µM (inactive) | 18.1 µM (inactive) | 17.8 µM (inactive)
CN(C)CCCNc1c2ccccc2nc2cccc([N+](=O)[O-])c12 | 0.0132 µM (active) | < 0.001 µM (active) | 0.0236 µM (active) | 0.00123 µM (active) | < 0.001 µM (active) | < 0.001 µM (active) | < 0.001 µM (active) | 0.013 µM (active) | < 0.001 µM (active) | < 0.001 µM (active) | < 0.001 µM (active) | 0.00173 µM (active) | 0.00362 µM (active) | 0.00117 µM (active) | 0.00217 µM (active) | < 0.001 | 0.00235 µM (active) | 0.00142 µM (active) | 0.0196 µM (active) | < 0.001 µM (active)
